Measured values from PubChem BioAssay AID1259407 (Chemical Carcinogenesis Research Information System (CCRIS), 2018).
The source made the active and inactive calls. How the calls were made is not given here.

Tested on: CCRIS mutagenicity, Ames/micronucleus/aberration tests
Assay: CCRIS mutagenicity studies

Measured: mutagenic call

CN1Cc2c(N)cccc2C(c2ccccc2)C1 (centres undefined)
inactive: Test System: AMES SALMONELLA TYPHIMURIUM, Strain/Indicator: TA98, Metabolic Activation: NONE, Method: STANDARD PLATE inactive; negative | Test System: AMES SALMONELLA TYPHIMURIUM, Strain/Indicator: TA98, Metabolic Activation: RAT, LIVER, S-9, AROCLOR 1254, Method: STANDARD PLATE inactive; negative | Test System: AMES SALMONELLA TYPHIMURIUM, Strain/Indicator: TA100, Metabolic Activation: NONE, Method: STANDARD PLATE inactive; negative | Test System: AMES SALMONELLA TYPHIMURIUM, Strain/Indicator: TA100, Metabolic Activation: RAT, LIVER, S-9, AROCLOR 1254, Method: STANDARD PLATE inactive; negative | Test System: AMES SALMONELLA TYPHIMURIUM, Strain/Indicator: TA1535, Metabolic Activation: NONE, Method: STANDARD PLATE inactive; negative | Test System: AMES SALMONELLA TYPHIMURIUM, Strain/Indicator: TA1535, Metabolic Activation: RAT, LIVER, S-9, AROCLOR 1254, Method: STANDARD PLATE inactive; negative | Test System: AMES SALMONELLA TYPHIMURIUM, Strain/Indicator: TA1537, Metabolic Activation: NONE, Method: STANDARD PLATE inactive; negative | Test System: AMES SALMONELLA TYPHIMURIUM, Strain/Indicator: TA1537, Metabolic Activation: RAT, LIVER, S-9, AROCLOR 1254, Method: STANDARD PLATE inactive; negative

O=[N+]([O-])c1ccc(S(=O)(=O)O)cc1
inactive: Test System: AMES SALMONELLA TYPHIMURIUM, Strain/Indicator: TA98, Metabolic Activation: NONE, Method: PREINCUBATION inactive; negative | Test System: AMES SALMONELLA TYPHIMURIUM, Strain/Indicator: TA98, Metabolic Activation: RAT, LIVER, S-9, KANECHLOR 500, Method: PREINCUBATION inactive; negative | Test System: AMES SALMONELLA TYPHIMURIUM, Strain/Indicator: TA100, Metabolic Activation: NONE, Method: PREINCUBATION inactive; negative | Test System: AMES SALMONELLA TYPHIMURIUM, Strain/Indicator: TA100, Metabolic Activation: RAT, LIVER, S-9, KANECHLOR 500, Method: PREINCUBATION inactive; negative

COCCN(N=O)C(N)=O
active: Test System: E. COLI B, Strain/Indicator: H/R30R, Metabolic Activation: NONE active; positive | Test System: E. COLI B, Strain/Indicator: HS30R, Metabolic Activation: NONE active; positive
